Reference: patent publication US10870647B2, “Imidazopyridine derivative, method for preparing same, and pharmaceutical composition containing same as active ingredient for preventing or treating cancer” (DAEGU-GYEONGBUK MEDICAL INNOVATION FOUNDATION, priority 2016, dated 2020)
Where two headings read alike, the source gives them in different places.

Key:
Test in all cases: Kinase selectivity, scanMAX Kinase assay panel (DiscoverX), % control at 1 uM
Type in all cases: binding
[1] = biological target: T1, scanMAX Kinase assay panel (Homo sapiens, UniProt P42679); details: CTK; 1 uM; read-out: Percent Control (%)
T1 construct: purchased DiscoverX
T1 sequence (P42679 1-507): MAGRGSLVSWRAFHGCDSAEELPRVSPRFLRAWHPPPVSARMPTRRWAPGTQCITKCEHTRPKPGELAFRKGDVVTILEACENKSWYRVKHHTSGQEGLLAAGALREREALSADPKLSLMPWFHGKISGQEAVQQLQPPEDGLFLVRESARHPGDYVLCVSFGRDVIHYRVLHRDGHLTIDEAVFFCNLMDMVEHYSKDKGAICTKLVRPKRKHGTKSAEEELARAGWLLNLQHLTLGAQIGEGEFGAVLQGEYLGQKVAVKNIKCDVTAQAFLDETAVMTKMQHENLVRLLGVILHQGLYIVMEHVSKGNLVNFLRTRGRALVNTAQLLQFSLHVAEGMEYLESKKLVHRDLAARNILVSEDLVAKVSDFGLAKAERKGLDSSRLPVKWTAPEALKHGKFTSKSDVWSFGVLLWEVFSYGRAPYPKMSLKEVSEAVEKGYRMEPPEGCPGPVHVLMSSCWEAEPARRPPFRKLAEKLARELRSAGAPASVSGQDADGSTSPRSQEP
How it was run: (§1)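 Activity was called for kinases showing % control under 35, calculated from compound signal relative to positive and negative controls. Each compound screened at 1 uM against the DiscoverX scanMAX panel.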

[2] = biological target: T2, scanMAX Kinase assay panel (Homo sapiens, UniProt Q7L7X3); details: TAOK1; 1 uM; read-out: Percent Control (%)
T2 construct: purchased DiscoverX
T2 sequence (Q7L7X3 1-1001): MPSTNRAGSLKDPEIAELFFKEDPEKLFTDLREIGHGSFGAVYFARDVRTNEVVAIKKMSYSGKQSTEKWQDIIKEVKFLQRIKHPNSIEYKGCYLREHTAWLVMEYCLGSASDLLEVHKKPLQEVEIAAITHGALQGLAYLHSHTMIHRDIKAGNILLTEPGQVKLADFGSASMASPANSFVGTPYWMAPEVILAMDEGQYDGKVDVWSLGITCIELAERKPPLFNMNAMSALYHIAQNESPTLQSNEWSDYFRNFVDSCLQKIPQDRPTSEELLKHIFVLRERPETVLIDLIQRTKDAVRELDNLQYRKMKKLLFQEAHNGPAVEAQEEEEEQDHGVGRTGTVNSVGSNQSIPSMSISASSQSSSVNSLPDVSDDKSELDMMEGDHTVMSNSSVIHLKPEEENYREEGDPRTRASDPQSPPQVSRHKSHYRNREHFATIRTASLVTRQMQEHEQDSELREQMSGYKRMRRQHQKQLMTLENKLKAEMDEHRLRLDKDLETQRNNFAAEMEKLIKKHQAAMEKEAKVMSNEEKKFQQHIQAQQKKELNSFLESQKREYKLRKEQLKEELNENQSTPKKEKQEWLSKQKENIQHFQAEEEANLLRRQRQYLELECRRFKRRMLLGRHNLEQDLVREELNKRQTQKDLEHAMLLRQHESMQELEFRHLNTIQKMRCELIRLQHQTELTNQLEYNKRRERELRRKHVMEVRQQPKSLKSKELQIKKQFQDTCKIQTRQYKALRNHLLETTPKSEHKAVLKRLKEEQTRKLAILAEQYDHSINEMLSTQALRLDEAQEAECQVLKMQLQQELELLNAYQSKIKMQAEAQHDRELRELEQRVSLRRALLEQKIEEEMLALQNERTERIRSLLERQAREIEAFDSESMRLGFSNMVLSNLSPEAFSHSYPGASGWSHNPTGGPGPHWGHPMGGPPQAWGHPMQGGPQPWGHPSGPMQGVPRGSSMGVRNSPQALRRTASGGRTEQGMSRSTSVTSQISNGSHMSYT
How it was run: as §1

[3] = biological target: T3, scanMAX Kinase assay panel (Homo sapiens, UniProt P10721, V559D); details: KIT (V559D); 1 uM; read-out: Percent Control (%)
T3 construct: purchased DiscoverX
How it was run: as §1

[4] = biological target: T4, scanMAX Kinase assay panel (Homo sapiens, UniProt Q9P286); details: PAK7; 1 uM; read-out: Percent Control (%)
T4 construct: purchased DiscoverX
How it was run: as §1

[5] = biological target: T5, scanMAX Kinase assay panel (Homo sapiens, UniProt P45985); details: MEK4; 1 uM; read-out: Percent Control (%)
T5 construct: purchased DiscoverX
T5 sequence (P45985 1-399): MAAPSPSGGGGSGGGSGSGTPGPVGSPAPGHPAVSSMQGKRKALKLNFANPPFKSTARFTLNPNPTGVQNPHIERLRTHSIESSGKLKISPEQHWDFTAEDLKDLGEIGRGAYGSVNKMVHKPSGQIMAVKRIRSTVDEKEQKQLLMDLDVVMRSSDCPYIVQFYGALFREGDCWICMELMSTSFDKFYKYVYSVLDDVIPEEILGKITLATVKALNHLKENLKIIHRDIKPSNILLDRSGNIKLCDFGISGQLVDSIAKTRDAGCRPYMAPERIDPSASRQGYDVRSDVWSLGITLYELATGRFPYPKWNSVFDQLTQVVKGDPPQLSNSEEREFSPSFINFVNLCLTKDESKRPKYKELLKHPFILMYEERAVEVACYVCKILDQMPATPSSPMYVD
How it was run: as §1

[6] = biological target: T6, scanMAX Kinase assay panel (Homo sapiens, UniProt Q9NYL2); details: ZAK; 1 uM; read-out: Percent Control (%)
T6 construct: purchased DiscoverX
How it was run: as §1

[7] = biological target: T7, scanMAX Kinase assay panel (Homo sapiens, UniProt P00519, F317I); details: 1 uM, read-out: Percent Control (%)
T7 construct: purchased DiscoverX
How it was run: as §1

[8] = biological target: T8, scanMAX Kinase assay panel (Homo sapiens, UniProt P08069); details: IGF1R; 1 uM; read-out: Percent Control (%)
T8 construct: purchased DiscoverX
How it was run: as §1

T3 sequence (P10721 26-976 V559D): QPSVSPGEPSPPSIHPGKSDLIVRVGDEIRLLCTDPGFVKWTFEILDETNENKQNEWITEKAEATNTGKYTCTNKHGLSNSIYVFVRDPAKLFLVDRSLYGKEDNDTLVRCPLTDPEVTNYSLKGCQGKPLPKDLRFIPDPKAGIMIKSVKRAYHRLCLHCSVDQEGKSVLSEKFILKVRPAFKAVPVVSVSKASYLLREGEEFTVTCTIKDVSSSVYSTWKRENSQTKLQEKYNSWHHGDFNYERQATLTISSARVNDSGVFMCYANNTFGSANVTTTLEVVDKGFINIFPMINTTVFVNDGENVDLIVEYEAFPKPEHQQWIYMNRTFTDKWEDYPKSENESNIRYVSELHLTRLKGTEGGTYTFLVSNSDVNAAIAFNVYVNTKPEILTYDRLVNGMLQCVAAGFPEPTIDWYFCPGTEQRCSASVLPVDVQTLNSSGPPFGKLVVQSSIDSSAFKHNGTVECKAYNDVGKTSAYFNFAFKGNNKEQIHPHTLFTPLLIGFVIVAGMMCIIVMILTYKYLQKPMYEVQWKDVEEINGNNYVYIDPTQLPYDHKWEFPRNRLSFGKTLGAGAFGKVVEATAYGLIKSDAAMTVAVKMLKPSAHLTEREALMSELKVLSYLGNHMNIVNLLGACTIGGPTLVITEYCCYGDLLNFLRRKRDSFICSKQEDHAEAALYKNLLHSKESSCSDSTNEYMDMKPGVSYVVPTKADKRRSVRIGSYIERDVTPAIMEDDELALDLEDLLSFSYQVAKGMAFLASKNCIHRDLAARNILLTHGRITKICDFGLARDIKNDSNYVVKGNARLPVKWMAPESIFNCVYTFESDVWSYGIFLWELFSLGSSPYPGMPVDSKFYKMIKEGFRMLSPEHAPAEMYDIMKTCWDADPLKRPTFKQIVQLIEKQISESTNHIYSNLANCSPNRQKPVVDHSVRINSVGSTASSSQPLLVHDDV
T4 sequence (Q9P286 whole entry): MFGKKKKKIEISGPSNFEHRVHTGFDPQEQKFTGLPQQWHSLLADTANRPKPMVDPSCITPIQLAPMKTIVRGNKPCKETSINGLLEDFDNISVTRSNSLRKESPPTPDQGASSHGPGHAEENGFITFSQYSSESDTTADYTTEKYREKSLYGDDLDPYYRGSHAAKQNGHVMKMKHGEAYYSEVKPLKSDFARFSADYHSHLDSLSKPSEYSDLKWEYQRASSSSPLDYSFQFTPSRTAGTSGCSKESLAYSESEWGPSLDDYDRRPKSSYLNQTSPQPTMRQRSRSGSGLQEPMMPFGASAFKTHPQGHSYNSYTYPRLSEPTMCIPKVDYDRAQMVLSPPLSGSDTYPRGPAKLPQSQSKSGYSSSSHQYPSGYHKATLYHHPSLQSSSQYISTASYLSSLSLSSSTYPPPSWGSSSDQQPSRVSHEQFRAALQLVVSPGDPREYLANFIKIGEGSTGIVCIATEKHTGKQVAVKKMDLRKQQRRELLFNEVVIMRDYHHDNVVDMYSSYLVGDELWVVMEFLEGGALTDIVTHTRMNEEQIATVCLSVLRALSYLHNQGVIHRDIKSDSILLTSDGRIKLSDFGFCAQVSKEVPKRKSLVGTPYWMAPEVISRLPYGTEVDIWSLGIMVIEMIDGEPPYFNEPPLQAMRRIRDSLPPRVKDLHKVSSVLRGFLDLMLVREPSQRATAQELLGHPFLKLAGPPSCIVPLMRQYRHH
T7 sequence (P00519 whole entry F317I): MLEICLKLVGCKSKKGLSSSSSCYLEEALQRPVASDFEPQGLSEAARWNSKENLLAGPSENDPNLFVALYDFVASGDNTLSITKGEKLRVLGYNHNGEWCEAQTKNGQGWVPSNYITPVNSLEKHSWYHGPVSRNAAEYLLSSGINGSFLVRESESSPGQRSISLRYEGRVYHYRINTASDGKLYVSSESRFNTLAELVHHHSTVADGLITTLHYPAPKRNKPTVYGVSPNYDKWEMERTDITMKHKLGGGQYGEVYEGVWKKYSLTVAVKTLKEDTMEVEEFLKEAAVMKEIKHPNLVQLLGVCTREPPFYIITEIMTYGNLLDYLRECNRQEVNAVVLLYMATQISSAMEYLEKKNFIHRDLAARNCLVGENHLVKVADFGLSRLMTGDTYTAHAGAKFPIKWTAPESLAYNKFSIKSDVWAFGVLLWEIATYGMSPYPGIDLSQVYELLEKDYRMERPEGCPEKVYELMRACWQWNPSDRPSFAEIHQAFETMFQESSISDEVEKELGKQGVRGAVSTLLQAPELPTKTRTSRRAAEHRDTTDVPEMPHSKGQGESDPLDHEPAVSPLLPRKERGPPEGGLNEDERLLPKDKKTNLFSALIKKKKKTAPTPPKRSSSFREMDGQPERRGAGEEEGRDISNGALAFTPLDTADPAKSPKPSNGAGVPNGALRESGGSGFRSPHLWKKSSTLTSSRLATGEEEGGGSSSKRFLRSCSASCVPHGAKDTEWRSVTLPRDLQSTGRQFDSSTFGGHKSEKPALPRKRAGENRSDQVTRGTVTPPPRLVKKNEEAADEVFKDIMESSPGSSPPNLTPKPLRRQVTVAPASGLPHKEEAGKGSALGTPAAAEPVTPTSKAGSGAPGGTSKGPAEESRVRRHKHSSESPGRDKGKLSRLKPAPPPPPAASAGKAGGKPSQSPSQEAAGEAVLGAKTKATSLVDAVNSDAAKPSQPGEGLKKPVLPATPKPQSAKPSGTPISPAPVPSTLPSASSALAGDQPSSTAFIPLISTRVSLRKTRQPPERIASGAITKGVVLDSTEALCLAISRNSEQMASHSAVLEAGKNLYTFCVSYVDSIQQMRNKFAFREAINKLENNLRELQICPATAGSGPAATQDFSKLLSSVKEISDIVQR
T6 sequence (Q9NYL2 whole entry): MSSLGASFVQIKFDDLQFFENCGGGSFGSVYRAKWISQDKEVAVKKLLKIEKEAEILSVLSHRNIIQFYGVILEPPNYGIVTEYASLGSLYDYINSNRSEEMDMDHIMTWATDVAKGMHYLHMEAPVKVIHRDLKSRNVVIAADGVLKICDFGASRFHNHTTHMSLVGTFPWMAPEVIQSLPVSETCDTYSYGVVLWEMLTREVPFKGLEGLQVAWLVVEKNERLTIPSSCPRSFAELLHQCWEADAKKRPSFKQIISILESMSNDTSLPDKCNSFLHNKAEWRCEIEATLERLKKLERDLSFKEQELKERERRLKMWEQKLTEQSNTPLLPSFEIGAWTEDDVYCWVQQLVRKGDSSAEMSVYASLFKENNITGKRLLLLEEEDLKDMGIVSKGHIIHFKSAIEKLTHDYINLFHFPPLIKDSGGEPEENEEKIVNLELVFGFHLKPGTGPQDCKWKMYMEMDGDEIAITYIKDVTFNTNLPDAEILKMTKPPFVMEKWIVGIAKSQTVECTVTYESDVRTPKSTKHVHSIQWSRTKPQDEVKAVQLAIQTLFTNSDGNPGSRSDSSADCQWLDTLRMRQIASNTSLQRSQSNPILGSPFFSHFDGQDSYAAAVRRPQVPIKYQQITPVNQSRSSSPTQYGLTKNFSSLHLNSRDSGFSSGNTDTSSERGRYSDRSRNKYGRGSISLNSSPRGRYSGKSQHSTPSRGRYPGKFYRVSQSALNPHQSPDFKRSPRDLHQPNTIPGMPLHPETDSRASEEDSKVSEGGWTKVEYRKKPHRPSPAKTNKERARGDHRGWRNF
T8 sequence (P08069 31-1367): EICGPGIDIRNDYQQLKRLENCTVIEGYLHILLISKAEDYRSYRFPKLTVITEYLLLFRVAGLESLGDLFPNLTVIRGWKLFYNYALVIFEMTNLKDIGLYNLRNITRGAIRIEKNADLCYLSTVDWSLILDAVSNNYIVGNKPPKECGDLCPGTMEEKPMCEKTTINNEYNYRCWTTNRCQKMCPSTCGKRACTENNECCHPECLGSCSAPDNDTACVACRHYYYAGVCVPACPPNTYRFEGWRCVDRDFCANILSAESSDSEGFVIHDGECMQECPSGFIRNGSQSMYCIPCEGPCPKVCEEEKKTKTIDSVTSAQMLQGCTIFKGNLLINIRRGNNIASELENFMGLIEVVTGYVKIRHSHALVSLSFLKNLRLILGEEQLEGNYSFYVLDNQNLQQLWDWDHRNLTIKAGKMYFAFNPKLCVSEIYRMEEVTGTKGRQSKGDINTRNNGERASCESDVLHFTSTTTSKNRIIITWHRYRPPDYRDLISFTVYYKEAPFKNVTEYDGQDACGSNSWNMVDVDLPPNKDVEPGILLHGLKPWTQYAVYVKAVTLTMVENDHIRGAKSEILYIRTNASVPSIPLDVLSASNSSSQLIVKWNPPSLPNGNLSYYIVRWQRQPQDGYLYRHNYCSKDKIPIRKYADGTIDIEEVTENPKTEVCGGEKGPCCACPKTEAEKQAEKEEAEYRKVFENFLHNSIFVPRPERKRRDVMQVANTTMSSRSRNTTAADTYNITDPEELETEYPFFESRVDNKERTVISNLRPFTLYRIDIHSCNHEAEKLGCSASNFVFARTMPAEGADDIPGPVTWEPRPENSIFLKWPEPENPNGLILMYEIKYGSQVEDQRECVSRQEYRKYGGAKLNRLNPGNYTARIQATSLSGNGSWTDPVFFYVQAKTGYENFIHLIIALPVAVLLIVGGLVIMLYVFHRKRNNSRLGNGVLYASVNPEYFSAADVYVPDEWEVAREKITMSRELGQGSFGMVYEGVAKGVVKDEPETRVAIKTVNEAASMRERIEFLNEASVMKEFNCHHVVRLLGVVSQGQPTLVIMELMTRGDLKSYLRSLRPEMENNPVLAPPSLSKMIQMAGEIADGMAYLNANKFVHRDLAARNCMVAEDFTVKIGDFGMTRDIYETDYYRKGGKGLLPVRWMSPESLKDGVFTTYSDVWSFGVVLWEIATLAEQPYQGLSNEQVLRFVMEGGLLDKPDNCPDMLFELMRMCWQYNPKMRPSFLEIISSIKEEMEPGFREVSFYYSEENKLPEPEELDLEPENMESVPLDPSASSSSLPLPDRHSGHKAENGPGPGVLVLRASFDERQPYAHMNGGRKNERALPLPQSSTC

Row | Compound | remaining binding at 1 µM [1] | remaining binding at 1 µM [2] | remaining binding at 1 µM [3] | remaining binding at 1 µM [4] | remaining binding at 1 µM [5] | remaining binding at 1 µM [6] | remaining binding at 1 µM ([7]; ABL1 (F317I)-nonphosphorylated) | remaining binding at 1 µM ([7]; ABL1 (F317I)-phosphorylated) | remaining binding at 1 µM [8]
1 | Cc1ccc(C(=O)Nc2ccc(CN3CCN(C)CC3)c(C(F)(F)F)c2)cc1C#Cc1cnc2c(Nc3cnn(C)c3)cccn12 [Example 1, 4-methyl-3-((8-((1-methyl-1H-pyrazol-4-yl)amino)imidazo[1,2-a]pyridin-3-yl)ethynyl)-N-(4-((4-methylpiperazin-1-yl)methyl)-3-(trifluoromethyl)phenyl)benzamide] | 22% | 51% | 0% | 100% | 98% | 1% | 1% | 3% | 56%
2 | Cc1cn(-c2cc(NC(=O)c3ccc(C)c(C#Cc4cnc5c(Nc6cnn(C)c6)cccn45)c3)cc(C(F)(F)F)c2)cn1 [Example 12, 4-methyl-N-(3-(4-methyl-1H-imidazol-1-yl)-5-(trifluoromethyl)phenyl)-3-((8-((1-methyl-1H-pyrazol-4-yl)amino)imidazo[1,2-a]pyridin-3-yl)ethynyl)benzamide] | 74% | 100% | 1% | 100% | 100% | 1% | 10% | 28% | 100%
3 | Cc1ccc(NC(=O)C2(C(=O)Nc3ccc(F)cc3)CC2)cc1C#Cc1cnc2c(Nc3cnn(C(C)C)c3)cccn12 [Example 78] | 90% | 89% | 0% | 100% | 97% | 19% | 36% | 72% | 100%
